Measurements as given in ChEMBL document CHEMBL3352057, “Novel fluorinated pyrrolo[1,2-a]pyrazine-2,6-dione derivatives: synthesis and anticonvulsant evaluation in animal models of epilepsy” (Bioorg Med Chem, 2014).
The source made the active and inactive calls. No cut-off for these calls is given here.

How the values were obtained:
Mus musculus [1] = test: Anticonvulsant activity in albino CF1 mouse assessed as protection against maximal electroshock-induced seizures at 100 mg/kg, ip measured after 0.25 hr; assay type: functional, organism-based; parameters: dose 100 mg/kg
Mus musculus [2] = test: Anticonvulsant activity in albino CF1 mouse assessed as protection against maximal electroshock-induced seizures at 100 mg/kg, ip measured after 0.5 hr; assay type: functional, organism-based; parameters: dose 100 mg/kg
Mus musculus [3] = test: Anticonvulsant activity in albino CF1 mouse assessed as protection against maximal electroshock-induced seizures at 100 mg/kg, ip measured after 1 hr; assay type: functional, organism-based; parameters: dose 100 mg/kg
Mus musculus [4] = test: Anticonvulsant activity in albino CF1 mouse assessed as protection against maximal electroshock-induced seizures at 100 mg/kg, ip measured after 4 hrs; assay type: functional, organism-based; parameters: dose 100 mg/kg
Mus musculus [5] = test: Anticonvulsant activity in albino CF1 mouse assessed as protection against subcutaneous metrazol-induced seizures at 100 mg/kg, ip measured after 0.25 hr; assay type: functional, organism-based; parameters: dose 100 mg/kg
Mus musculus [6] = test: Anticonvulsant activity in albino CF1 mouse assessed as protection against subcutaneous metrazol-induced seizures at 100 mg/kg, ip measured after 0.5 hr; assay type: functional, organism-based; parameters: dose 100 mg/kg
Mus musculus [7] = test: Anticonvulsant activity in albino CF1 mouse assessed as protection against subcutaneous metrazol-induced seizures at 100 mg/kg, ip measured after 1 hr; assay type: functional, organism-based; parameters: dose 100 mg/kg
Mus musculus [8] = test: Anticonvulsant activity in albino CF1 mouse assessed as protection against subcutaneous metrazol-induced seizures at 100 mg/kg, ip measured after 4 hrs; assay type: functional, organism-based; parameters: dose 100 mg/kg
Mus musculus [9] = test: Neurotoxicity in albino CF1 mouse at 100 mg/kg, ip measured after 0.25 hr; assay type: toxicity, organism-based; parameters: dose 100 mg/kg, route intraperitoneal; settings: in vivo
Mus musculus [10] = test: Neurotoxicity in albino CF1 mouse at 100 mg/kg, ip measured after 0.5 hr; assay type: toxicity, organism-based; parameters: dose 100 mg/kg, route intraperitoneal; settings: in vivo
Mus musculus [11] = test: Neurotoxicity in albino CF1 mouse at 100 mg/kg, ip measured after 1 hr; assay type: toxicity, organism-based; parameters: dose 100 mg/kg, route intraperitoneal; settings: in vivo
Mus musculus [12] = test: Neurotoxicity in albino CF1 mouse at 100 mg/kg, ip measured after 4 hrs; assay type: toxicity, organism-based; parameters: dose 100 mg/kg, route intraperitoneal; settings: in vivo
Mus musculus [13] = test: Anticonvulsant activity in albino CF1 mouse assessed as protection against 32 mA current-induced seizures at 100 mg/kg, ip measured after 0.25 hr; assay type: functional, organism-based; parameters: dose 100 mg/kg
Mus musculus [14] = test: Anticonvulsant activity in albino CF1 mouse assessed as protection against 32 mA current-induced seizures at 100 mg/kg, ip measured after 0.5 hr; assay type: functional, organism-based; parameters: dose 100 mg/kg
Mus musculus [15] = test: Anticonvulsant activity in albino CF1 mouse assessed as protection against 32 mA current-induced seizures at 100 mg/kg, ip measured after 1 hr; assay type: functional, organism-based; parameters: dose 100 mg/kg
Mus musculus [16] = test: Anticonvulsant activity in albino CF1 mouse assessed as protection against 32 mA current-induced seizures at 100 mg/kg, ip measured after 2 hrs; assay type: functional, organism-based; parameters: dose 100 mg/kg
Mus musculus [17] = test: Anticonvulsant activity in albino CF1 mouse assessed as protection against 32 mA current-induced seizures at 100 mg/kg, ip measured after 4 hrs; assay type: functional, organism-based; parameters: dose 100 mg/kg
Mus musculus [18] = test: Neurotoxicity in 32 mA current-induced seizure albino CF1 mouse model at 100 mg/kg, ip measured after 0.25 hr; assay type: toxicity, organism-based; parameters: dose 100 mg/kg, route intraperitoneal; settings: in vivo
Mus musculus [19] = test: Neurotoxicity in 32 mA current-induced seizure albino CF1 mouse model at 100 mg/kg, ip measured after 0.5 hr; assay type: toxicity, organism-based; parameters: dose 100 mg/kg, route intraperitoneal; settings: in vivo
Mus musculus [20] = test: Neurotoxicity in 32 mA current-induced seizure albino CF1 mouse model at 100 mg/kg, ip measured after 1 hr; assay type: toxicity, organism-based; parameters: dose 100 mg/kg, route intraperitoneal; settings: in vivo
Mus musculus [21] = test: Neurotoxicity in 32 mA current-induced seizure albino CF1 mouse model at 100 mg/kg, ip measured after 2 hrs; assay type: toxicity, organism-based; parameters: dose 100 mg/kg, route intraperitoneal; settings: in vivo
Mus musculus [22] = test: Neurotoxicity in 32 mA current-induced seizure albino CF1 mouse model at 100 mg/kg, ip measured after 4 hrs; assay type: toxicity, organism-based; parameters: dose 100 mg/kg, route intraperitoneal; settings: in vivo

## O=C1NC(=O)[C@@H]2CCCN2[C@H]1c1c(F)cccc1F (mixture of isomers)
Mus musculus [1]
  Activity: Active
Mus musculus [2]
  Activity: inactive
Mus musculus [3]
  Activity: inactive
Mus musculus [4]
  Activity: inactive
Mus musculus [5]
  Activity: inactive
Mus musculus [6]
  Activity: inactive
Mus musculus [7]
  Activity: inactive
Mus musculus [8]
  Activity: inactive
Mus musculus [9]
  Activity: Non-toxic
Mus musculus [10]
  Activity: Non-toxic
Mus musculus [11]
  Activity: Non-toxic
Mus musculus [12]
  Activity: Non-toxic
Mus musculus [13]
  Activity: Active
Mus musculus [14]
  Activity: inactive
Mus musculus [15]
  Activity: inactive
Mus musculus [16]
  Activity: inactive
Mus musculus [17]
  Activity: inactive
Mus musculus [18]
  Activity: Non-toxic
Mus musculus [19]
  Activity: Non-toxic
Mus musculus [20]
  Activity: Non-toxic
Mus musculus [21]
  Activity: Non-toxic
Mus musculus [22]
  Activity: Non-toxic

## O=C1NC(=O)[C@@H]2CCCN2[C@H]1c1ccccc1C(F)(F)F
Mus musculus [1]
  Activity: inactive
Mus musculus [2]
  Activity: inactive
Mus musculus [3]
  Activity: inactive
Mus musculus [4]
  Activity: inactive
Mus musculus [5]
  Activity: inactive
Mus musculus [6]
  Activity: inactive
Mus musculus [7]
  Activity: inactive
Mus musculus [8]
  Activity: inactive
Mus musculus [9]
  Activity: Non-toxic
Mus musculus [10]
  Activity: Non-toxic
Mus musculus [11]
  Activity: Non-toxic
Mus musculus [12]
  Activity: Non-toxic
Mus musculus [13]
  Activity: inactive
Mus musculus [14]
  Activity: inactive
Mus musculus [15]
  Activity: inactive
Mus musculus [16]
  Activity: inactive
Mus musculus [17]
  Activity: inactive
Mus musculus [18]
  Activity: Non-toxic
Mus musculus [19]
  Activity: Non-toxic
Mus musculus [20]
  Activity: Non-toxic
Mus musculus [21]
  Activity: Non-toxic
Mus musculus [22]
  Activity: Non-toxic

## Cl.O=C1NC(=O)[C@@H](c2cccc(C(F)(F)F)c2)N2CCC[C@H]12
Mus musculus [1]
  Activity: Active
Mus musculus [2]
  Activity: inactive
Mus musculus [3]
  Activity: inactive
Mus musculus [4]
  Activity: inactive
Mus musculus [9]
  Activity: Non-toxic
Mus musculus [10]
  Activity: Non-toxic
Mus musculus [11]
  Activity: Non-toxic
Mus musculus [12]
  Activity: Non-toxic
Mus musculus [13]
  Activity: Active
Mus musculus [14]
  Activity: Active
Mus musculus [15]
  Activity: Active
Mus musculus [16]
  Activity: inactive
Mus musculus [17]
  Activity: inactive
Mus musculus [18]
  Activity: Non-toxic
Mus musculus [19]
  Activity: Non-toxic
Mus musculus [20]
  Activity: Non-toxic
Mus musculus [21]
  Activity: Non-toxic
Mus musculus [22]
  Activity: Non-toxic

## O=C1NC(=O)[C@@H]2CCCN2[C@H]1c1c(F)cccc1Cl (mixture of isomers)
Mus musculus [1]
  Activity: inactive
Mus musculus [2]
  Activity: inactive
Mus musculus [3]
  Activity: inactive
Mus musculus [4]
  Activity: inactive
Mus musculus [5]
  Activity: inactive
Mus musculus [6]
  Activity: inactive
Mus musculus [7]
  Activity: inactive
Mus musculus [8]
  Activity: inactive
Mus musculus [9]
  Activity: Non-toxic
Mus musculus [10]
  Activity: Non-toxic
Mus musculus [11]
  Activity: Non-toxic
Mus musculus [12]
  Activity: Non-toxic
Mus musculus [13]
  Activity: inactive
Mus musculus [14]
  Activity: inactive
Mus musculus [15]
  Activity: inactive
Mus musculus [16]
  Activity: inactive
Mus musculus [17]
  Activity: inactive
Mus musculus [18]
  Activity: Non-toxic
Mus musculus [19]
  Activity: Non-toxic
Mus musculus [20]
  Activity: Non-toxic
Mus musculus [21]
  Activity: Non-toxic
Mus musculus [22]
  Activity: Non-toxic

## O=C1NC(=O)[C@H](c2cccc(C(F)(F)F)c2)N2CCC[C@H]12
Mus musculus [1]
  Activity: inactive
Mus musculus [2]
  Activity: inactive
Mus musculus [3]
  Activity: inactive
Mus musculus [4]
  Activity: inactive
Mus musculus [5]
  Activity: inactive
Mus musculus [6]
  Activity: inactive
Mus musculus [7]
  Activity: inactive
Mus musculus [8]
  Activity: inactive
Mus musculus [9]
  Activity: Non-toxic
Mus musculus [10]
  Activity: Non-toxic
Mus musculus [11]
  Activity: Non-toxic
Mus musculus [12]
  Activity: Non-toxic
Mus musculus [13]
  Activity: inactive
Mus musculus [14]
  Activity: inactive
Mus musculus [15]
  Activity: inactive
Mus musculus [16]
  Activity: inactive
Mus musculus [17]
  Activity: inactive
Mus musculus [18]
  Activity: Non-toxic
Mus musculus [19]
  Activity: Non-toxic
Mus musculus [20]
  Activity: Non-toxic
Mus musculus [21]
  Activity: Non-toxic
Mus musculus [22]
  Activity: Non-toxic
